# Measured values from patent publication US20260248763A1 (BIO GENUINE (SHANGHAI) BIOTECH CO., LTD, priority 2023, published 2026).
# Read-outs that look alike come from different tables or passages of the source.
# Key:
# OTR = molecular target: T1, OTR (Homo sapiens, UniProt P30559); assay: Ca2+ mobilization in cells stably expressing OTR (FLIPR, antagonist mode); format: cell-based; conditions: OTR/HEK293 stably transfected cell line
# T1 construct: expressed in transfected cells; host or cells: OTR/HEK293 stably transfected cell line
# T1 sequence (P30559 1-389): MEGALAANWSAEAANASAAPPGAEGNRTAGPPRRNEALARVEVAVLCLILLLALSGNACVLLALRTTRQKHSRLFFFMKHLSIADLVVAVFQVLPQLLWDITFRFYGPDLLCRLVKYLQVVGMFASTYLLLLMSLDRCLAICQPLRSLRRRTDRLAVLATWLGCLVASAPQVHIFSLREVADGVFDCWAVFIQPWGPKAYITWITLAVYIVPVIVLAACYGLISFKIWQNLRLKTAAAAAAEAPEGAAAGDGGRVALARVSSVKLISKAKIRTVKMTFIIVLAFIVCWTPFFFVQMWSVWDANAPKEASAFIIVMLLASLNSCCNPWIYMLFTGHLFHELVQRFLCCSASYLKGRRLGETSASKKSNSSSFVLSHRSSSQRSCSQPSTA
# Method in brief: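 OTR/HEK293 stable cells (20,000 per well) were loaded with Fluo-4 Direct plus probenecid. Cells were pre-exposed to 10-point, 3-fold compound dilutions before agonist challenge at EC80, determined beforehand per cell line. FLIPR calcium fluorescence (Max-Min) was fitted in Prism.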
# V1aR = molecular target: T2, V1aR (Homo sapiens, UniProt P37288); assay: Ca2+ mobilization in cells stably expressing V1aR (FLIPR, antagonist mode); format: cell-based; conditions: V1a-CHO stably transfected cell line
# T2 construct: expressed in transfected cells; host or cells: V1a-CHO stably transfected cell line
# T2 sequence (P37288 whole entry, species assumed): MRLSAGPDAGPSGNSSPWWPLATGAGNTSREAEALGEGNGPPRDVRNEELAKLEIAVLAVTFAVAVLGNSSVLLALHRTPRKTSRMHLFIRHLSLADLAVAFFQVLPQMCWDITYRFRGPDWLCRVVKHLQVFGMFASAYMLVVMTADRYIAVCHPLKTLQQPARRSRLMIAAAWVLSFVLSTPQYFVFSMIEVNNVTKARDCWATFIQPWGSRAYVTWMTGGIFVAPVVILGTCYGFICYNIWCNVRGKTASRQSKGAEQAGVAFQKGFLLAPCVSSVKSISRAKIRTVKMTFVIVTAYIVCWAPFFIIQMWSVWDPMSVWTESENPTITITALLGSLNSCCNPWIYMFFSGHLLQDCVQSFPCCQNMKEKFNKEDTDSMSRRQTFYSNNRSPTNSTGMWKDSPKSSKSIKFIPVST
# Excerpt: Test Example 2. Determination of the Effect of the Compound of the Present Disclosure on Ca^2+ Mobilization in Cells Stably Expressing V1aR
# To measure the antagonistic effect of the compound of the present disclosure on V1aR activity expressed in the V1a-CHO stably transfected cell line.
# • F-12 (Hyclone, SH30026.01) • FLIPR CALCIUM 6 ASSAY KIT (Molecul Device, R8191) • Fetal Bovine Serum (FBS) (AusGeneX, FBS500-S) • Hygromycin B (Solarbio, H8080-1g) • DMSO (Sigma, D4540) • HBSS (Gibco 14025-092) • Probenecid (MCE, HY—B0545) • 0.36 mL 96 Round V-bottom Deep Well Plates for Laboratory (Biaosen P-0.36-BSA-96) • 384-well conical bottom polypropylene plate (Nunc, 264573) • Corning® 384-well Flat Clear Bottom Black Polystyrene TC-treated Microplates (Corning 3764)
# • Biological safety cabinet (ECSO, AC2-6S1-TC) • Carbon dioxide cell incubator (ECSO, CCI-170B-8) • Inverted microscope (Olympus, CKX53) • Microplate low-speed centrifuge (Xiangzhi, TD5B) • FLIPR® Penta (Molecul Device, 5.0)
# • 1. Cell plating: V1a-CHO cells were digested and harvested, resuspended and counted, and then inoculated into a 384-well cell plate at a density of: 1.2×10^4 cells/25 μL/well. The cell plate was then incubated in an incubator at 37° C. with 5% CO2 for about 16-20 h. • 2. The next day: after preparing Assay Buffer, 20× Component A was thawed to room temperature, diluted with Assay buffer to 1× loading buffer, and placed at room temperature for later use. • 3. The medium was removed from the cell plate, and 40 μL of 1× loading buffer was quickly added to each well. After centrifugation, the cell plate was incubated at 37° C. in the dark for 120 minutes. • 4. The serially diluted positive compound, serially diluted test compound, and agonist working solution were formulated. After mixing the serially diluted positive compound/serially diluted test compound with the agonist at a 1:1 ratio, 20 μL per well was transferred to a 384-well compound source plate. • 5. The cell plate, agonist source plate, and pipette tips were placed into their respective positions in the FLIPR instrument. Using FLIPR Tetra, 10 μL of the diluted agonist from Step 4 was added to each test well, and the data were collected at a wavelength of 515 nm-575 nm. • 6. The signal values were plotted against the compound concentrations, and the curve fitting and IC50 calculation were performed using the nonlinear regression method of GraphPad Prism software.
# [1] = Blood-brain distribution determination in SD rats; format: in vivo; conditions: female SD rats, oral, 10 mg/kg
# Procedure: Test Example 4: Blood-Brain Distribution Determination in SD Rats
# In this study, female SD rats were selected as test animals. The LC/MS/MS method was used to quantitatively determine the drug concentrations of the test compounds in plasma and brain tissues at three different time points (0.5 h, 2 h, 4 h or 6 h) after oral administration (5 mg/kg or 10 mg/kg) in rats, so as to evaluate the pharmacokinetic profile of the test drugs in rats.
# (§1) The example compounds of the present disclosure, made in house.
# (§2) SD rats (female, 180-220 g, 6-8 weeks old, purchased from Beijing Vital River Laboratory Animal Technology Co., Ltd., with animal production license number SCXK (Beijing) 2021-0006).
# Vehicle for oral administration: 5% DMSO+95% PEG400 or a mixture of (50% Labrasol+50% Water).
# The test compound, formulated as a clear solution or suspension, was administered to overnight-fasted SD rats via oral gavage. For oral gavage, blood samples (0.25 mL) were collected via jugular vein puncture at pre-dose (0 h) and 0.5 h, 2 h, 4 h or 6 h post-dose. The samples were placed into sodium heparin anticoagulant tubes. After collection, the blood samples were placed on wet ice and centrifuged within 1 hour to separate the plasma. The separated plasma was stored frozen in a −80° C. freezer. After blood collection, the animals were euthanized by cervical dislocation. The whole brain tissue was dissected out. The collected brain tissue was first rinsed with physiological saline, blotted dry with absorbent paper, and then stored frozen in a −80° C. freezer. Prior to analysis, the brain tissue samples and plasma samples were taken out from the −80° C. freezer. After the brain tissue samples were completely thawed, a given amount of brain tissue was weighed, and 50% methanol/water was added for homogenization. Drug concentrations in plasma and brain tissues were determined using the LC-MS/MS method, and the relevant pharmacokinetic parameters were calculated using the non-compartmental model with linear-log trapezoidal method in Phoenix WinNonlin 8.2.0 pharmacokinetic software.
# [2] = Pharmacokinetic determination in SD rats; format: in vivo; conditions: rat, female SD rats, plasma; for AUC(0-t): read-out: Area under the curve AUC0-t; for half-life: read-out: Half-life T1/2 (converted)
# Procedure: Test Example 3: Pharmacokinetic Determination in SD Rats
# In this study, female SD rats were selected as test animals. The LC/MS/MS method was used to quantitatively determine the plasma drug concentrations of the test compounds at different time points after intravenous injection (2 mg/kg) or oral administration (5 mg/kg) in rats, so as to evaluate the pharmacokinetic profile of the test drugs in rats.
# as §1, §2
# Vehicle for intravenous administration: 5% DMSO+10% Solutol+85% Saline.
# Vehicle for oral administration: 5% DMSO+95% PEG400.
# The test compound, formulated as a clear solution or suspension, was administered to overnight-fasted SD rats via tail vein injection or oral gavage. For intravenous administration, blood samples (0.25 mL) were collected via jugular vein puncture at pre-dose (0 h) and 0.083, 0.25, 0.5, 1, 2, 4, 6, 8, and 24 h post-dose. The samples were placed into sodium heparin anticoagulant tubes, and the mixture was vortexed thoroughly and centrifuged at 6,000 rpm for 3 minutes at 4° C. For oral gavage, blood samples were collected via jugular vein puncture at pre-dose (0 h) and 0.083, 0.25, 1, 2, 4, 6, 8, and 24 h post-dose. The samples were placed into sodium heparin anticoagulant tubes, and the mixture was vortexed thoroughly and centrifuged at 6,000 rpm for 3 minutes. Plasma drug concentrations were determined using the LC-MS/MS method, and the relevant pharmacokinetic parameters were calculated using the non-compartmental model with linear-log trapezoidal method in Phoenix WinNonlin 8.2.0 pharmacokinetic software.
Structure (SMILES),IC50 (OTR) [nM],IC50 (V1aR) [nM],other results
"CO/N=C1/C[C@@H](CO)N(C(=O)c2ccc(-c3cccc(C(F)F)c3C)c3c2OCO3)C1 [Example C0118, (S, Z)-(7-(3-(Difluoromethyl)-2-methylphenyl)benzo[d][1,3]dioxolan-4-yl)(2-(hydroxymethyl)-4-(methoxyimino)pyrrolidin-1-yl)methanone]",32.9,1140,–
"CO/N=C1/C[C@@H](CO)N(C(=O)c2ccc(-c3ccc(F)c(C#N)c3C)c3c2OCO3)C1 [Example C0123, (S, Z)-6-Fluoro-3-(7-(2-(hydroxymethyl)-4-(methoxyimino)pyrrolidine-1-carbonyl)benzo[d][1,3]dioxolan-4-yl)-2-methylbenzonitrile]",16.1,9060,–
"CO/N=C1\C[C@@H](CO)N(C(=O)c2ccc(-c3cccc(C#N)c3C)c3c2OCCO3)C1 [Example C0132, (S,E)-3-(8-(2-(Hydroxymethyl)-4-(methoxyimino)pyrrolidine-1-carbonyl)-2,3-dihydrobenzo[b][1,4]dioxin-5-yl)-2-methylbenzonitrile]",11.4,8370,–
"CO/N=C1/C[C@@H](CO)N(C(=O)c2ccc(-c3cccc(C#N)c3C)c3c2OCCO3)C1 [Example C0133, (S,Z)-3-(8-(2-(Hydroxymethyl)-4-(methoxyimino)pyrrolidine-1-carbonyl)-2,3-dihydrobenzo[b][1,4]dioxin-5-yl)-2-methylbenzonitrile]",8.19,2350,–
"CO/N=C1/C[C@@H](CO)N(C(=O)c2ccc(-c3c(F)ccc(C#N)c3C)c3c2OCCO3)C1 [Example C0150, 4-Fluoro-3-(8-((S,Z)-2-(hydroxymethyl)-4-(methoxyimino)pyrrolidine-1-carbonyl)-2,3-dihydrobenzo[b][1,4]dioxin-5-yl)-2-methylbenzonitrile]",7.07,4050,–
"CO/N=C1/C[C@@H](CO)N(C(=O)c2ccc(-c3cccc(C#N)c3Cl)c3c2OCCO3)C1 [Example C0154, (S,Z)-2-Chloro-3-(8-(2-(hydroxymethyl)-4-(methoxyimino)pyrrolidine-1-carbonyl)-2,3-dihydrobenzo[b][1,4]dioxin-5-yl)benzonitrile]",5.32,1610,–
"CO/N=C1/C[C@@H](C(C)(C)O)N(C(=O)c2ccc(-c3cccc(C#N)c3C)cc2)C1 [Example C0164, (S,Z)-4′-(2-(2-Hydroxypropan-2-yl)-4-(methoxyimino)pyrrolidine-1-carbonyl)-2-methyl-[1,1′-biphenyl]-3-carbonitrile]",20.6,1870,–

# These reach a lower IC50 (V1aR). Values come first.
IC50 (OTR) [nM],IC50 (V1aR) [nM],Structure (SMILES),other results
17.2,520,"CO/N=C1/C[C@@H](CO)N(C(=O)c2ccc(-c3cccc(C#N)c3C)c(F)c2)C1 [Example C0158, (S,Z)-2′-Fluoro-4′-(2-(hydroxymethyl)-4-(methoxyimino)pyrrolidine-1-carbonyl)-2-methyl-[1,1′-biphenyl]-3-carbonitrile]",–
21.9,529,"CO/N=C1/C[C@@H](CO)N(C(=O)c2cc(F)c(-c3cccc(C#N)c3C)c3c2OCCO3)C1 [Example C0160, 3-(6-Fluoro-8-((S,Z)-2-(hydroxymethyl)-4-(methoxyimino)pyrrolidine-1-carbonyl)-2,3-dihydrobenzo[b][1,4]dioxin-5-yl)-2-methylbenzonitrile]",–
8.35,747,"CO/N=C1/C[C@@H](CO)N(C(=O)c2cc(F)c(-c3cccc(C#N)c3C)c3c2OCO3)C1 [Example C0162, 3-(5-Fluoro-7-((S,Z)-2-(hydroxymethyl)-4-(methoxyimino)pyrrolidine-1-carbonyl)benzo[d][1,3]dioxol-4-yl)-2-methylbenzonitrile]",–
–,389,"CO/N=C1/C[C@@H](CO)N(C(=O)c2ccc(-c3ccccc3C)cc2)C1 [Nolasiban, reference compound]","Brain tissue area under the curve AUC0-t [1]: 18727 ng·h/g; Kp ([1]; rat, brain/plasma, read-out: Brain/plasma exposure ratio): 3.29; AUC(0-t) ([1]; rat, plasma, read-out: Plasma area under the curve AUC0-t): 5700 ng·h/mL; AUC(0-t) ([2]; 2 mg/kg, IV (2 mpk)): 3050 ng·h/mL; AUC(0-t) ([2]; 5 mg/kg, PO (5 mpk)): 7700 ng·h/mL; clearance ([2]; 2 mg/kg, IV (2 mpk), read-out: Clearance Cl): 11.1 mL/min/kg; half-life ([2]; 2 mg/kg, IV (2 mpk)): 2.8 h; half-life ([2]; 5 mg/kg, PO (5 mpk)): 2.71 h"
